Test results as given in patent US20080306044A1, “SPIROBENZOAZEPANES AS VASOPRESSIN ANTAGONISTS” (priority 2007, published 2008).

Experiments:
human V1a receptor [1] = molecular target: T1, human V1a receptor (Homo sapiens, UniProt P37288); test: In-vitro binding assay (3H-arginine-8-vasopressin), V1a; conditions: for IC50: membrane containing human V1a receptor, 3H-arginine-8-vasopressin 0.65-0.75 nM
T1 construct: expressed in transfected cells
Experimental: (§1) Assay buffer is 50 mM Tris-Cl, 5 mM MgCl2, 0.1% BSA (pH 7.5) containing 5 μg/mL of aprotinin, leupeptin, pepstatin, 50 μg/mL bacitracin, and 1 mM Pefabloc (4-(2-aminoethyl)-benzenesulfonyl fluoride, hydrochloride manufactured by Roche Diagnostics Corporation, Indianapolis, Ind. and distributed by Boehringer Mannheim). H3 vasopressin is ^3H-arginine-8-vasopressin (NEN Life Sciences, Boston, Mass.; 68.5 Ci/mmol, final concentration in assay is 0.65-0.75 nM). Into the wells of a 96-well round bottom polypropylene plates are added buffer, test compound, membrane (containing human V1a or V2 receptor), and H3 vasopressin. The reaction plates are allowed to sit at room temperature for one hour. The samples are filtered through Unifilter GF/C plates (PerkinElmer Life Sciences, Boston, Mass.) presoaked in 0.3 polyethyleneimine. The plates are washed 5 times with cold physiological saline containing 0.05% Tween 20. After drying, the bottom of the filter plates are sealed and 0.025 mL of Microscint-20 (Packard Instrument Co, Meriden, Conn.) is added to each filter. The top of the plate is sealed, and the plate is counted. Non-specific binding is determined by the addition of 1.25 μM arginine-8-vasopressin in those wells.
(§2) The % inhibition for the test results was calculated according to the formula: […]
Where an IC50 value was not obtained, the percent inhibition values are shown in parentheses (*) and were obtained at a test concentration of 0.2 μM.

human V2 receptor [2] = molecular target: T2, human V2 receptor (Homo sapiens, UniProt P30518); test: In-vitro binding assay (3H-arginine-8-vasopressin), V2; conditions: for inhibition at 0.2 µM: test concentration of 0.2 μM, read-out: V2 binding percent inhibition (in parentheses, where an IC50 value was not obtained); for IC50: membrane containing human V2 receptor, 3H-arginine-8-vasopressin 0.65-0.75 nM
Experimental: as §1, with “H3 vasopressin is ^3H-arginine-8-vasopressin (NEN Life Sciences, Boston, Mass.; 68.5 Ci/mmol, final concentration in assay is 0.65-0.75 nM).” left out, “counted.” for “counted. Non-specific binding is determined by the addition of 1.25 μM arginine-8-vasopressin in those wells.”
as §2

human V1a receptor [3] = molecular target: T1, human V1a receptor; test: cell-based
Experimental: The V1a receptor is a G-protein coupled receptor, which upon activation triggers an increase in intracellular calcium mobilization. To evaluate compounds for their functional V1a receptor activity, HEK-293 cells were transfected with the human V1a receptor (V1a-HEK cells). HEK-293 cells were grown in DMEM (Dulbecco's modified Eagle Media) supplemented with 10% FBS and glutamine. HEK-cells were passed biweekly by trypsinization and seeded into 96 well plates at 33,000 cells per well. HEK-293 cells were transfected with human V1a receptor DNA using DMRIE-C reagent from Life Technologies (Carlsbad, Calif.). Stable lines were generated by selecting cells grown in culture media containing geneticin. After growing in Packard Clear-View black 96 well plates for 4-6 days, V1a-HEK cells were loaded with the calcium-sensitive fluorescence dye, FLUO-3 AM. Changes in intracellular calcium mobilization were measured by quantitating intracellular fluorescence using FLIPR (Fluorometric Imaging Plate Reader; Molecular Devices, Sunnyvale, Calif.). Test compounds were first added to the cells and the resulting changes in fluorescence measured to detect receptor agonistic activity. Five minutes later the cells were challenged with vasopressin to test compounds for their antagonistic activity. Receptor antagonists inhibit the ability of vasopressin to stimulate increases in intracellular fluorescence.

human V2 receptor [4] = molecular target: T2, human V2 receptor; test: V2 vasopressin receptor functional activity (cAMP accumulation); format: cell-based; set-up: expressed in transfected cells; host or cells: HEK-293; conditions: V2-HEK cells; block of vasopressin-stimulated cAMP accumulation; read-out: V2 (functional) IC50
Experimental: The V2 receptor is also a G-protein coupled receptor which when activated induces an increase in cAMP turnover. Antagonism against the V2 receptor is determined by measuring cAMP accumulation in transfected HEK-293 cells expressing the human V-2 receptor (V2-HEK cells). Compounds are tested for their ability to block the stimulatory effects of vasopressin on cAMP accumulation. The cell content of cAMP is measured by radioimmunoassay using NEN flashplates.

[5] = V1 (functional) IC50, V1a-HEK cells, inhibition of vasopressin-stimulated intracellular calcium mobilization

T2 sequence (P30518 whole entry): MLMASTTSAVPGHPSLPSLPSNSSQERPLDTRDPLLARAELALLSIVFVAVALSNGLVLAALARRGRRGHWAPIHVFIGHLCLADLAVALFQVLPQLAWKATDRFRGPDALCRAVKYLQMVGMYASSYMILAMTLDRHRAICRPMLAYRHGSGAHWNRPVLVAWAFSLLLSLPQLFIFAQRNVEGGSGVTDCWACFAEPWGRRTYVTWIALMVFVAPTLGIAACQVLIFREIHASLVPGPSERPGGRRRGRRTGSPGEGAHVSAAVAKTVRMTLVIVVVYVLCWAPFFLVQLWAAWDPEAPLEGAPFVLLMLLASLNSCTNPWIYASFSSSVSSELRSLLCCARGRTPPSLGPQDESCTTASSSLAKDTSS
T1 sequence (P37288 whole entry): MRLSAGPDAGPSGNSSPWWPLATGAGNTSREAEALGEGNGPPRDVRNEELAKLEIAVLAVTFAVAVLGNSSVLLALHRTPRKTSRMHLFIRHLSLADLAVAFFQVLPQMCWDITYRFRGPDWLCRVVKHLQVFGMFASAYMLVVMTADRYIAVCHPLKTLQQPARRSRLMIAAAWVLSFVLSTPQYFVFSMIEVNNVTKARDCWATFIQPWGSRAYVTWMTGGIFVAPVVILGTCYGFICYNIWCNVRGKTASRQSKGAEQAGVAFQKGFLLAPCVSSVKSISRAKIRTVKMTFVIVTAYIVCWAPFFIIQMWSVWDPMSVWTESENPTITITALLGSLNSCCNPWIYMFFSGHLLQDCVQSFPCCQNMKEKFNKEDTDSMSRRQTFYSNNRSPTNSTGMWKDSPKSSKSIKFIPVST

| Compound | IC50 (human V1a receptor [1]) [µM] | inhibition at 0.2 µM (human V2 receptor [2]) [%] | IC50 (human V1a receptor [3]; [5]) [µM] | IC50 (human V2 receptor [4]) [µM] | IC50 (human V2 receptor [2]) [µM] | IC50 (human V1a receptor [3]) [µM] | inhibition at 0.2 µM (human V1a receptor [1]; test concentration of 0.2 μM, read-out: V1a binding percent inhibition (in parentheses, where an IC50 value was not obtained)) [%] |
| --- | --- | --- | --- | --- | --- | --- | --- |
| CN(C)N=C1CCCC12CCN(C(=O)c1ccc(NC(=O)c3cc(F)ccc3Cl)cc1)c1ccccc1C2 (centres unmarked) [Cpd 3, N-[4-(2-chloro-5-fluoro-phenylcarbonyl)amino-phenylcarbonyl]-2-dimethylaminoimino-spiro[cyclopentane-1,4′-benzo[b]azepane]] | 0.009 | 48 | 0.02 | 0.25 | – | – | – |
| O=C(NN=C1CCCC12CCN(C(=O)c1ccc(NC(=O)c3cc(F)ccc3Cl)cc1)c1ccccc1C2)c1cccnc1 (centres unmarked) [Cpd 4, N-[4-(2-chloro-5-fluoro-phenylcarbonyl)amino-phenylcarbonyl]-2-pyridin-3-ylcarbonylaminoimino-spiro[cyclopentane-1,4′-benzo[b]azepane]] | 0.012 | – | 0.02 | 0.043 | 0.062 | – | – |
| Cn1ccnc1C1=CCCC12CCN(C(=O)c1ccc(NC(=O)c3cc(F)ccc3Cl)cc1)c1ccccc1C2 (centres unmarked) [Cpd 5, N-[4-(2-chloro-5-fluoro-phenylcarbonyl)amino-phenylcarbonyl]-2-(1-methyl-1H-imidazol-2-yl)-spiro[cyclopent-2-ene-1,4′-benzo[b]azepane]] | 0.009 | – | – | 0.066 | 0.084 | 0.13 | – |
| CN(C)C1CCCC12CCN(C(=O)c1ccc(NC(=O)c3cc(F)ccc3Cl)cc1)c1ccccc1C2 (centres unmarked) [Cpd 6, N-[4-(2-chloro-5-fluoro-phenylcarbonyl)amino-phenylcarbonyl]-2-dimethylamino-spiro[cyclopentane-1,4′-benzo[b]azepane]] | 0.01 | 63 | – | 0.107 | – | 0.07 | – |
| O=C(Nc1ccc(C(=O)N2CC[C@@]3(CCCC3=NO)Cc3ccccc32)cc1)c1cc(F)ccc1Cl [Cpd 7, (R)—N-[4-(2-chloro-5-fluoro-phenylcarbonyl)amino-phenylcarbonyl]-2-hydroxyimino-spiro[cyclopentane-1,4′-benzo[b]azepane]] | 0.008 | – | 0.018 | 0.024 | 0.028 | – | – |
| O=C(Nc1ccc(C(=O)N2CCC3(CCCC3=NO)Cc3ccccc32)cc1)c1ccccc1-c1ccccc1 (centres unmarked) [Cpd 37, N-[4-(biphen-2-ylcarbonyl)amino-phenylcarbonyl]-2-hydroxyimino-spiro[cyclopentane-1,4′-benzo[b]azepane]] | 0.023 | – | 0.03 | 0.09 | 0.027 | – | – |
| NN=C1CCCC12CCN(C(=O)c1ccc(NC(=O)c3ccccc3-c3ccccc3)cc1)c1ccccc1C2 (centres unmarked) [Cpd 38, 2-aminoimino-N-[4-(biphen-2-ylcarbonyl)amino-phenylcarbonyl]-spiro[cyclopentane-1,4′-benzo[b]azepane]] | 0.021 | – | < 0.03 | 0.04 | 0.024 | – | – |
| NC1CCCC12CCN(C(=O)c1ccc(NC(=O)c3ccccc3-c3ccccc3)cc1)c1ccccc1C2 (centres unmarked) [Cpd 39, 2-amino-N-[4-(biphen-2-ylcarbonyl)amino-phenylcarbonyl]-spiro[cyclopentane-1,4′-benzo[b]azepane]] | 0.08 | – | – | 0.69 | 0.11 | 0.73 | – |
| NCC(=O)NC1CCCC12CCN(C(=O)c1ccc(NC(=O)c3ccccc3-c3ccccc3)cc1)c1ccccc1C2 (centres unmarked) [Cpd 40, 2-(aminomethylcarbonyl)amino-N-[4-(biphen-2-ylcarbonyl)amino-phenylcarbonyl]-spiro[cyclopentane-1,4′-benzo[b]azepane]] | 0.023 | – | – | 0.2 | 0.015 | 0.29 | – |
| NCCON=C1CCCC12CCN(C(=O)c1ccc(NC(=O)c3cccc(F)c3)cc1)c1ccccc1C2 (centres unmarked) [Cpd 41, N-[4-(3-fluoro-phenylcarbonyl)amino-phenylcarbonyl]-2-(2-amino-ethoxy)imino-spiro[cyclopentane-1,4′-benzo[b]azepane]] | 0.008 | 55 | – | 0.7 | – | 0.02 | – |
| COc1cc(C(=O)N2CCC3(CCCC3=NO)Cc3ccccc32)ccc1NC(=O)c1cc(F)ccc1Cl (centres unmarked) [Cpd 42, N-[3-methoxy-4-(2-chloro-5-fluoro-phenylcarbonyl)amino-phenylcarbonyl]-2-hydroxyimino-spiro[cyclopentane-1,4′-benzo[b]azepane]] | 0.012 | – | 0.06 | 0.092 | 0.039 | – | – |
| O=C(Nc1ccc(C(=O)N2CCC3(CCCC3=NNc3ccccn3)Cc3ccccc32)cc1)c1cc(F)ccc1Cl (centres unmarked) [Cpd 43, N-[4-(2-chloro-5-fluoro-phenylcarbonyl)amino-phenylcarbonyl]-2-pyridin-2-ylaminoimino-spiro[cyclopentane-1,4′-benzo[b]azepane]] | 0.005 | – | 0.08 | 0.2 | 0.056 | – | – |
| O=C(Nc1ccc(C(=O)N2CCC3(CCCC3=NO)Cc3ccccc32)cc1)c1cc(F)ccc1Cl (centres unmarked) [Cpd 44, N-[4-(2-chloro-5-fluoro-phenylcarbonyl)amino-phenylcarbonyl]-2-hydroxyimino-spiro[cyclopentane-1,4′-benzo[b]azepane]] | 0.007 | – | 0.02 | 0.066 | 0.028 | – | – |
| O=C(Nc1ccc(C(=O)N2CC[C@]3(CCCC3=NO)Cc3ccccc32)cc1)c1cc(F)ccc1Cl [Cpd 45, (S)—N-[4-(2-chloro-5-fluoro-phenylcarbonyl)amino-phenylcarbonyl]-2-hydroxyimino-spiro[cyclopentane-1,4′-benzo[b]azepane]] | – | 10 | 0.57 | 0.55 | – | – | 67 |
